The test system of the assay is MDMA acute toxicity in mice. Kind of assay: Protective activity against MDMA acute toxicity (survival) in mice. It counts as in vivo, C57B1/6J mice. The conditions noted are these: inhibitor i.p. 5-120 minutes before toxic dose of MDMA; FIG. 6A. Here is the method: Next step was to determine whether compounds blocking the enhanced expression of GABA transporters may restraint MDMA-induced hyperthermia. We ran trials to determine whether the mortality levels causes by MDMA administration would be affected by treatment with suspected GABA transporter inhibiting compounds Tiagabine, nipecotic acid derivative NO-711, and Vigabatrin which have been used hitherto as anti-epileptics.
Mice were administered dose(s) of mg/ml of MDMA according to the following schedule and were […] injected with a dose of the GABA transporter blocker. In the first set of experiments the effective toxic dose of MDMA was determined. C57B1/6J mice, 2-3 months old, 6 mice in each group, were tested with different concentration of the drug, prepared in saline and injected intraperitoneally. Saline solution was used as a control. The lowest concentration of the drug causing 100% death within 60 minutes was used in the following experiments. Mice (8 in each group) were injected (i.p.) with different concentrations of the tested GABA transporter inhibitor, or other compound, and 5-120 minutes later were injected with the toxic dose of MDMA. […]

Consider `Cc1ccsc1C(=CCCN1CCC[C@@H](C(=O)O)C1)c1sccc1C` [Tiagabine, (R)-1-[4,4-Bis(3-methyl-2-thienyl)-3-butenyl]-3-piperidinecarboxylic acid], for which the “Survival of MDMA-treated mice” value is “significantly improved the survival”.
In the case of `Cl.O=C(O)C1=CCCN(CCON=C(c2ccccc2)c2ccccc2)C1` [NO-711, 1-(2(((diphenylmethylene)imino)oxy)ethyl)-1,2,5,6-tetrahydro-3-pyridinecarboxylic acid hydrochloride] it was “significantly improved the survival”.

Values taken from patent publication US20050267050A1, “Compositions and methods for treating mdma-induced toxicity” (YEDA RESEARCH AND DEVELOPMENT CO. LTD., priority 2002, published 2005).
